Results as given in US20120004244A1, “Bis Aromatic Compounds for Use as LTC4 Synthase Inhibitors” (BIOLIPOX AB, priority 2009, published 2012).

Target: T1, Recombinant human LTC4 synthase (Homo sapiens, UniProt Q16873)
T1 construct: made in house; host or cells: Pichia pastoris ('Piccia pastoralis' [sic])
T1 sequence (Q16873 1-150): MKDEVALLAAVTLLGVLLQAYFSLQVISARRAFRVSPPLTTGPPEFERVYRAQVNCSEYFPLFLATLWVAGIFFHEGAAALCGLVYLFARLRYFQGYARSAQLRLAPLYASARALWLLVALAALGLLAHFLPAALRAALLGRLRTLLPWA
Experiment: LTC4 synthase in vitro assay (LTA4 to LTC4, HTRF detection)
Format: biochemical
In short: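 Purified recombinant human LTC4 synthase expressed in Pichia (0.5 μg/mL total protein) was preincubated with inhibitor at 10 μM final for 10 min at room temperature in PBS pH 7.4 with 5 mM GSH. LTA4 was then added at 2.5 μM final, and after 5 min at room temperature LTC4 was detected by HTRF.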

SMILES	IC50 [nM]
CN(c1ccc(Cl)cc1)c1ccc(C(=O)c2ccc(C(=O)c3ccc(C(F)(F)F)cc3)c(C(=O)O)c2)nc1 [5:11]	216
CN(c1ccc(Cl)cc1)c1ccc(C(=O)c2ccc(C(=O)c3ccc([N+](=O)[O-])cc3)c(C(=O)O)c2)nc1 [5:12]	202
CN(c1ccc(Cl)cc1)c1ccc(C(=O)c2ccc(C(=O)C(C)(C)C)c(C(=O)O)c2)nc1 [5:13, 5-{5-[(4-Chlorophenyl)(methyl)amino]picolinoyl}-2-(2,2-dimethylpropionyl)-benzoic acid]	491
CN(c1ccc(Cl)cc1)c1ccc(C(=O)c2ccc(C(=O)Cc3ccccc3)c(C(=O)O)c2)nc1 [5:16, 5-{5-[(4-Chlorophenyl)(methyl)amino]picolinoyl}-2-phenylacetylbenzoic acid]	257
CN(c1ccc(Cl)cc1)c1ccc(C(=O)c2ccc(C(=O)C3CCCCC3)c(C(=O)O)c2)nc1 [5:18, 5-{5-[(4-Chlorophenyl)(methyl)amino]picolinoyl}-2-cyclohexylcarbonylbenzoic acid]	246
Cc1ccc(N(C)c2ccc(C(=O)c3ccc(C(=O)c4ccccc4)c(C(=O)O)c3)nc2)cc1 [5:21]	250
Cc1cc(Cl)ccc1N(C)c1ccc(C(=O)c2ccc(C(=O)c3ccccc3)c(C(=O)O)c2)nc1 [5:22, 2-Benzoyl-5-{5-[(4-chloro-2-methylphenyl)(methyl)amino]picolinoyl}benzoic acid]	442
CN(c1ccc(Cl)cc1)c1ccc(C(=O)c2ccc(C(=O)C3CCCO3)c(C(=O)O)c2)nc1 (centres unmarked) [5:25, 5-{5-[(4-Chlorophenyl)(methyl)amino]picolinoyl}-2-tetrahydrofuran-2-carbonylbenzoic acid]	860
CN(c1ccc(Cl)cc1)c1ccc(C(=O)c2ccc(C(=O)c3ccccc3C(F)(F)F)c(C(=O)O)c2)nc1 [5:29]	245

Stronger by IC50, values ahead:

IC50 [nM]	SMILES
68	COc1ccc(C(=O)c2ccc(C(=O)c3ccc(N(C)c4ccc(Cl)cc4)cn3)cc2C(=O)O)c(OC)c1 [5:10, 5-{5-[(4-Chlorophenyl)(methyl)amino]picolinoyl}-2-(2,4-dimethoxybenzoyl)-benzoic acid]
77	CCOc1ccc(C(=O)c2ccc(C(=O)c3ccc(N(C)c4ccc(Cl)cc4)cn3)cc2C(=O)O)cc1OCC [5:14, 5-{5-[(4-Chlorophenyl)(methyl)amino]picolinoyl}-2-(3,4-diethoxybenzoyl)-benzoic acid]
126	CN(c1ccc(Cl)cc1)c1ccc(C(=O)c2ccc(C(=O)c3ccc(F)cc3)c(C(=O)O)c2)nc1 [5:15, 5-{5-[(4-Chlorophenyl)(methyl)amino]picolinoyl}-2-(4-fluorobenzoyl)benzoic acid]
90	CCCCCCC(=O)c1ccc(C(=O)c2ccc(N(C)c3ccc(Cl)cc3)cn2)cc1C(=O)O [5:17, 5-{5-[(4-Chlorophenyl)(methyl)amino]picolinoyl}-2-heptanoylbenzoic acid]
32	CN(c1ccc(Cl)cc1)c1ccc(C(=O)c2ccc(C(=O)C3(c4ccccc4)CC3)c(C(=O)O)c2)nc1 [5:19]
104	CN(c1ccc(Cl)cc1)c1ccc(C(=O)c2ccc(C(=O)c3cccs3)c(C(=O)O)c2)nc1 [5:20, 5-{5-[(4-Chlorophenyl)(methyl)amino]picolinoyl}-2-(2-thienylcarbonyl)benzoic acid]
184	CCc1ccc(N(C)c2ccc(C(=O)c3ccc(C(=O)c4ccccc4)c(C(=O)O)c3)nc2)cc1 [5:23]
77	CN(c1ccc(Cl)cc1)c1ccc(C(=O)c2ccc(C(=O)c3ccc4c(c3)OCO4)c(C(=O)O)c2)nc1 [5:24, 5-{5-[(4-Chlorophenyl)(methyl)amino]picolinoyl}-2-(3,4-methylenedioxy-benzoyl)benzoic acid]
27	CN(c1ccc(Cl)cc1)c1ccc(C(=O)c2ccc(C(=O)c3ccc4c(c3)OCCO4)c(C(=O)O)c2)nc1 [5:26]
54	CN(c1ccc(Cl)cc1)c1ccc(C(=O)c2ccc(C(=O)c3cccc(C(F)(F)F)c3)c(C(=O)O)c2)nc1 [5:27]
60	CN(c1ccc(Cl)cc1)c1ccc(C(=O)c2ccc(C(=O)c3cccc(OC(F)(F)F)c3)c(C(=O)O)c2)nc1 [5:28]
